Assay results taken from patent publication US9661855B2, “Cyclic aza-sila compounds as insect repellants” (COUNCIL OF SCIENTIFIC & INDUSTRIAL RESEARCH, priority 2012, dated 2017).
Read-outs that look alike come from different tables or passages of the source.

Key:
Aedesaegypti (L.) = conditions: against Aedesaegypti (L.); topical, human volunteers; cited from earlier work
[1] = test system: Anopheles stephensi Liston; conditions: against Anopheles stephensi Liston; topical, human volunteers; cited from earlier work
insect bites = conditions: cited from earlier work
[2] = test system: Ae. aegypti females mosquitoes; assay: Mosquito repellence test, protection period (time until the first bite), treated muslin screen over human volunteer's hand; assay type: in vivo; conditions: 27±1° C.; for Protection period in hrs @ 0.25 mg/cm^2: 0.25 mg/cm^2 on muslin cloth screen; for Protection period in hrs @ 0.50 mg/cm^2: 0.50 mg/cm^2 on muslin cloth screen
Protocol: Mosquito repellence activity was assessed on the basis of protection period (hr) offered by various analogues of DEET against Mosquito bites. The protection period was measured on the basis of the concept” time until the first bite” pioneered by Granette (Comparison of mosquito repellence test under laboratory and field conditions. Granett, P. Proc Ann Meet NJ Mosq Assoc, 1938, vol. 25, 51). Repellence tests were carried out against 3-5 days old, blood starved but sucrose fed (0.5M solution), Ae. aegypti females mosquitoes, drawn from well-established laboratory colony maintained at 27±1° C. Temperature and 70±5% Relative humidity. The light intensity was regulated at 300-500 lux for testing against laboratory, colonized Ae. aegypti, a day biting mosquito. Human volunteer's hand covered with polythene disposable gloves was introduced in the cage containing about 200 hungry mosquitoes. Mosquitoes were allowed to bite on the back of the hand through muslin screen stuck over a small window (2 cm×2 cm) cut out in the polythene bag. Various analogues of DEET were loaded on the muslin cloth screen instead of direct skin application so as to avoid the potential risk involved in the evaluation of natural products of unknown mammalian toxicity. All the test solutions were made in Analar grade Acetone The muslin cloth screen was first treated with the analogue taking two doses @0.25 mg/cm2 and 0.5 mg/cm2 and the solvent was evaporated before use. Control muslin screen was treated with solvent alone. After introduction of the hand covered with the polythene glove with the treated muslin screen into the mosquito cage, number of mosquito bites received in subsequent 5 minutes was counted. In the event of no bites in the initial 5 minutes exposure, the test hand was exposed repeatedly after every consecutive ½ hr for 5 minutes test till the time a confirmed bite was received. Number of hours before the receipt of a confirmed bite (Techniques for the evaluation of insect repellents. A critical review (Schreck, C. E, Ann Rev Entomol, 1977, vol 22, 101) represented the protection period offered by the test compound. In control rate of mosquito bite was 10-12 bites/min. All the tests were carried out at 27±1° C. temperature between 9.00-17.00 hrs.

Row | SMILES | melting point [°C] | Protection period in hrs @ 0.25 mg/cm^2 [2] [h] | Protection period in hrs @ 0.50 mg/cm^2 [2] [h] | also measured
1 | C[Si]1(C)CCN(C(=O)c2cc(Cl)ccc2Cl)CC1 | 79 to 81 | – | – | –
2 | C[Si]1(C)CCN(C(=O)c2ccccc2)CC1 | 65 to 67 | – | – | –
3 | CCN(CC)C(=O)Cc1cccc(Br)c1 [N,N-diethyl(3-bromophenyl) acetamide] | – | – | – | biting-deterrent activities compared with DEET (Aedesaegypti (L.)): superior to DEET; biting-deterrent activities compared with DEET [1]: superior to DEET
4 | CCN(CC)C(=O)Cc1cccc(C(F)(F)F)c1 [N,N-diethyl[(alpha,alpha,alpha-trifluoro-m-tolyl)]acetamide] | – | – | – | biting-deterrent activities compared with DEET (Aedesaegypti (L.)): superior to DEET; biting-deterrent activities compared with DEET [1]: superior to DEET
5 | Cc1cccc(C(=O)N2CC[Si](C)(C)CC2)c1 | 65 to 68 | – | – | –
6 | CCN(CC)C(=O)c1cccc(C)c1 [DEET, N,N-Diethyl-meta-toluamide] | – | – | – | hours of protection (insect bites; 100% DEET): up to 12 hours; hours of protection (insect bites; lower concentrations of 20%-40% DEET): 3 to 8 h
7 | Cc1cccc(C(=O)N2CC[Si](C)(C)CC2)c1 [drawing 33] | – | 1.47 ± 0.13 | 2.15 ± 0.072 | –
8 | Cc1ccccc1C(=O)N1CC[Si](C)(C)CC1 | – | 4.09 ± 0.053 | 5.41 ± 0.135 | –
9 | CCN(CC)C(=O)c1cccc(C(F)(F)F)c1 [N,N,diethyl[3-(trifluoromethyl)]benzamide] | – | – | – | biting-deterrent activities compared with DEET (Aedesaegypti (L.)): superior to DEET; biting-deterrent activities compared with DEET [1]: superior to DEET
10 | C[Si]1(C)CCN(C(=O)c2ccccn2)CC1 | 101 to 103 | – | – | –
11 | Cc1ccc(C(=O)N2CC[Si](C)(C)CC2)cc1 | – | 3.08 ± 0.056 | 4.16 ± 0.067 | –
12 | C[Si]1(C)CCN(C(=O)c2cnccn2)CC1 | – | 2.14 ± 0.76 | 4.22 ± 0.69 | –
13 | CCCCCCCCCCC(=O)N1CC[Si](C)(C)CC1 | – | 2.14 ± 0.065 | 5.05 ± 0.207 | –
